Blank lines part the entries; values can stand above or below the compound they belong to.
Tests used:
MOD-1 [1] = molecular target: T1, MOD-1 (Caenorhabditis elegans, UniProt Q9GQ00); assay: cell-based
MOD-1 [2] = molecular target: T1, MOD-1; assay: whole-cell patch clamp of homomeric MOD-1 expressed in BOSC-23 cells, agonist concentration-response (efficacy about […]); type: cell-based
MOD-1 [3] = molecular target: T1, MOD-1; assay: whole-cell patch clamp in BOSC-23 cells, preincubation; weak partial reduction of 5-HT peak current at […]; type: cell-based
MOD-1 [4] = molecular target: T1, MOD-1; assay: whole-cell patch clamp in BOSC-23 cells, inhibition of […] 5-HT currents after […] s preincubation; type: cell-based

T1 sequence (Q9GQ00 21-489): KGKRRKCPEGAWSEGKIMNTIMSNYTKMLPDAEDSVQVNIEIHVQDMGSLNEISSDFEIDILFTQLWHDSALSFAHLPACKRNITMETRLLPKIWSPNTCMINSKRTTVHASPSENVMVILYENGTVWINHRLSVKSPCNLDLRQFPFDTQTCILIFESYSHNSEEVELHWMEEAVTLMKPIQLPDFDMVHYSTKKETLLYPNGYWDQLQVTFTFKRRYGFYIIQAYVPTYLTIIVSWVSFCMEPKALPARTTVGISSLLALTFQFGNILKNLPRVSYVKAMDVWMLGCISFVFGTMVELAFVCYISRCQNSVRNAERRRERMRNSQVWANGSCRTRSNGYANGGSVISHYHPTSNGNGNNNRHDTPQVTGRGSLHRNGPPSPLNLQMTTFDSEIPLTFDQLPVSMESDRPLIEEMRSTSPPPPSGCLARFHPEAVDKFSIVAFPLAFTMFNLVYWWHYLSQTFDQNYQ

IC50 (MOD-1 [1]): 113 ± 29 µM
Compound: C1CNCCN1 [PZE, piperazine]

Compound: NCCc1c[nH]c2ccccc12 [Tryp, tryptamine]
EC50 (MOD-1 [2]): 47 ± 11 µM

Compound: O=C(O)C1=CCNCC1 [isoguvacine]
inhibition at 1000 µM (MOD-1 [3]): 23 ± 14%

Compound: NCc1cc(=O)[nH]o1 [muscimol]
IC50 (MOD-1 [4]): 249 ± 160 µM

Source: paper PMC9471462, “The nematode serotonin-gated chloride channel MOD-1: A novel target for anthelmintic therapy” (The Journal of Biological Chemistry, 2022)
